Measurements published in patent publication US5874235A, “Screening assays for cancer chemopreventative agents” (The Johns Hopkins University, priority 1997, dated 1999).
Read-outs that look alike come from different tables or passages of the source.

Columns and labels:
[1] = test system: SW480 cells; type: cell-based, human
Procedure: FIGS. 1A, 1B and 1C NSAID induce apoptosis in human colorectal cancer cells. In FIG. 1A, HCT116 and SW480 cells were treated with indomethacin (INDO) (300 μM) or SUS (125 μM for HCT116 and 200 μM for SW480 cells). Cells were collected at the indicated times, fixed and stained with Hoechst 33258 (23). The cells were counted and those with fragmented nuclei were scored as apoptotic. In FIG. 1B, HCT116 and SW480 cells were treated with SUS or INDO for 60 hours, harvested and stained as described above. Cells treated with SUS or INDO show the hallmarks of apoptosis.
This death appeared to be apoptotic, as it was accompanied by nuclear condensation and fragmentation (FIG. 1B) and exposure of phosphatidylserine groups on the cell surface, two hallmarks of apoptosis (11, 12).

[2] = test system: HCT116 cells; assay: Phosphatidylserine exposure by merocyanine staining; type: cell-based, human; conditions: 125 μM SUS, 48 hours
Procedure: (§1) Phosphatidylserine exposure was assessed by merocyanine staining as previously described (31). Forty-eight hours after treatment with 125 μM SUS, 44% of HCT116 stained with merocyanine versus 4% in the vehicle-treated control cells. Likewise, 74% of SW480 cells stained with merocyanine 50 hours after treatment with 200 μM SUS versus 1.5% of the vehicle-treated control cells.

[3] = test system: SW480 cells; assay: as above; type: cell-based, human; conditions: 200 μM SUS, 50 hours
Procedure: as §1

[4] = test system: SW480 cells; assay: cells; type: cell-based, human; conditions: for increase in arachidonic acid: apoptosis-inducing doses of SUS
Procedure: FIGS. 4A, 4B, 4C, 4D, 4E and 4F. The role of arachidonic acid in NSAID-mediated apoptosis. […] HCT116 and SW480 cells were treated with the indicated concentrations of SUS or INDO. Arachidonic acid (AA) levels were determined by measuring release of ^3 H-AA into the media as previously described (18). Data are indicated as the mean of three replicates with the error bars corresponding to the standard deviation. In addition, the nature of the released radiolabeled material was evaluated by thin layer chromatography as previously described (28). […] HCT116 and SW480 cells were incubated with ^3 H-choline chloride (0.5 mCi ml^-1, 80 Ci mmol^-1, New England Nuclear) for 48 hours. After labeling, cells were washed with HBSS (Gibco) and treated with SUS or INDO for the indicated times. Sphingomyelin measurements were performed using the bacterial sphingomyelinase method as previously described (18). Sphingomyelin levels at each time point are plotted as a percentage of that in untreated control cells. For each point, the mean of at least two independent experiments is presented with the error bars corresponding to the standard deviations. […] SW480 cells were treated with 200 μM arachidonic acid (AA), SUS (SUS) or behenic acid as a control fatty acid (FA) as indicated. […] SW480 cells were treated with suboptimal doses (100 μM) of arachidonic acid (AA), SUS (SUS), or both (AA+SUS) as indicated. After 48 hours of treatment, apoptosis and ceramide increases were assessed as described for FIGS. 1 and 3, respectively. Ceramide increases (left axis) were expressed as fold increases relative to untreated cells. Apoptosis (right axis) was expressed as percent apoptotic cells minus percent apoptotic cells in untreated cells (5.6%+/-2.4). Data are indicated as the mean of duplicates with the error bars corresponding to the standard deviation.
Arachidonic acid is known to stimulate neutral sphingomyelinase (18), which catalyzes the conversion of sphingomyelin to ceramide. We therefore considered the possibility that inhibition of COX activity might lead to increases in arachidonic acid, the substrate for COX. To test this hypothesis, we first determined whether SUS stimulated arachidonic acid accumulation. In both SW480 and HCT 116 cells, apoptosis-inducing doses of SUS increased arachidonic acid by 2 to 3 fold at 24 hours and by approximately 5 fold at 48 hours (FIGS. 4A and 4B). The arachidonic acid increase following SUS treatment was as great as that following treatment with mellitin, a known activator of phospholipase A2. Arachidonic acid levels in HCT116 cells increased 3.5 fold one hour after treatment with 1 μM mellitin. Likewise, arachidonic acid levels increased 2.9 fold in SW480 cells one hour after mellitin treatment. Arachidonic acid (AA) levels were determined by measuring release of ^3 H-AA into the media as previously described (18). The nature of released radiolabeled material was evaluated by thin layer chromatography analysis as previously described (28).

[5] = test system: immortalized human keratinocytes (HaCat); assay: Apoptosis in immortalized keratinocytes; type: cell-based; conditions: 48 h, read-out: cells that had undergone apoptosis
Procedure: This ability of SUS is not limited to colon cancer cells; primary fibroblasts and immortalized keratinocytes can increase ceramide levels and undergo apoptosis in response to SUS. […] Forty-eight hours after exposure to 200 μM SUS greater than 70% of the cells had undergone apoptosis and ceramide levels were 8.2 and 4.7 fold increased in HDF and HaCat cells, respectively. This is consistent with NSAIDs' ability to reduce tumor formation in a variety of tissues (19) and their adverse effects on normal gastric mucosa, but it fails to explain the apparent greater sensitivity of tumor cells. The in vivo effect will likely depend on the local concentration of the NSAID in the incipient tumor microenvironment as well as the target cell's "lipid biostat" (20). The fact that the concentration of SUS is higher in the intestines than in other organs, due to enterohepatic circulation and due to the metabolic activation of sulindac to SUS by gut flora (21), may be responsible for its particular efficacy in intestinal tumorigenesis.

[6] = test system: primary human diploid fibroblast (HDF); assay: Ceramide levels in primary fibroblasts; type: cell-based; conditions: 200 μM SUS, 48 hours, read-out: increase in ceramide levels
Procedure: Ceramide levels were measured using the Escherichia coli diacylglycerol (DAG) kinase assay as previously described (30) with the following modifications. After the initial lipid extraction, phases were broken by adding 2 ml chloroform and 2 ml 1M NaCl and lipids were washed with 1M NaCl prior to drying under nitrogen (32, 33). After solubilization, samples were sonicated for 15 seconds. The DAG reaction was performed for 30 minutes at 25° C. in a 100 μl reaction volume with 3.5 μg DAG kinase (Calbiochem) and […] γ^32 P-ATP (Dupont NEN, 6000 Ci/mmol). After extraction of the labeled lipids, the lower chloroform phase was washed with 1% HCl prior to drying under nitrogen. The solvent mixture for thin layer chromatography was chloroform:acetone:methanol:acetic acid:water (10:4:3:2:1). Samples were quantitated using a Phosphorimager (Molecular Dynamics).
This ability of SUS is not limited to colon cancer cells; primary fibroblasts and immortalized keratinocytes can increase ceramide levels and undergo apoptosis in response to SUS. […] Forty-eight hours after exposure to 200 μM SUS greater than 70% of the cells had undergone apoptosis and ceramide levels were 8.2 and 4.7 fold increased in HDF and HaCat cells, respectively. […]

CSc1ccc(/C=C2/C(C)=C(CC(=O)O)c3cc(F)ccc32)cc1 [SUS, sulindac sulfide]
apoptosis ([1]; 200 μM SUS, 16 hours): the majority of cells had not yet undergone apoptosis
apoptosis ([1]; SUS 200 μM, with or without 10 μM CHX, 48 hours): underwent apoptosis
cells stained with merocyanine [2]: 44%
cells stained with merocyanine [3]: 74%
fold induction at 200 µM ([4]; Homo sapiens, SW480, 200 μM SUS, 16 hours, read-out: increase in arachidonic acid): 3.4
increase in arachidonic acid ([4]; 24 hours): 2 to 3 fold
increase in arachidonic acid ([4]; 48 hours): approximately 5 fold
cytotoxicity at 200 µM [5]: > 70%
fold induction at 200 µM [6]: 8.2
